Results as given in patent US5073571A, “Method of inhibiting virus” (priority 1989, dated 1991).

Columns and labels:
HIV-1 [1] = assay: HIV-1 replication in H9 cells, reverse transcriptase activity of culture supernatants (acute infection); type: cell-based, HIV-1 strain HXB2gptX (in human H9 cells); settings: for effect on reverse transcriptase activity: 1-10 μM, 10 day incubation, HIV-1 infected H9 cells; for activity at 100 µM: Human immunodeficiency virus 1, H9, 240 h, read-out: reverse transcriptase (RT) activity
Procedure: (§1) Media was changed every other day. The effect of these compounds on virus production was determined by measuring the reverse transcriptase (RT) activity in samples of the cell culture supernatants. […] Negative controls consisted of no additions or 0.1ethanol. The results of duplicate assays were averaged. Panel B -Concentration-dependent effects of 13-oxamyristic acid on HIV-1 replication as measured by RT activity (percent of untreated control) and the presence of p24 antigen (ng/ml determined by ELISA). Error bars indicate the S.E.M. of assays done in triplicate. Panel C - The effect of 13-oxamyristic acid on syncytia formation using an arbitrary scale described under Materials and Methods, Example 16, below. Panel D - Toxicity of 13-oxamyristic acid determined by viable cell count (trypan blue exclusion), as well as by [^3 H]thymidine and [^3 H]leucine labeling (see under Materials and Methods, Example 16, below). The incorporation of these radiolabeled compounds was determined in the total cell population contained in a well after 10 days of treatment with the analog. Duplicate assays were performed and the results averaged.
Assay for HIV-1 Replication. The human T-lymphoid cell line, H9, was provided by R. D. Gallo (NIH) and maintained in RPMI-1640 medium supplemented with 10% fetal bovine serum, 100 IU/mL penicillin, 100 μg/mL streptomycin an 2 mM L-glutamine. HIV-1 strain HXB2gptX [Fisher et al., Science 233, 655-659 (1986)] was obtained from cultures of chronically infected H9 cells [Popovic et al., Science 224, 497-500 (1984)]< filtered through 0.2 μm Millipore filters and stored at -90° C. The titer of the virus stock was determined by serial dilution using syncytia formation and reverse transcriptase activity (see below) as a measure of infectivity in H9 cells.
Cell-free HIV-1, at a multiplicity of infection (m.o.i.) equal to 0.01-0.001, was added to 10^7 H9 cells which had been pretreated with 2 μg/ml Polybrene® (hexadimethrene bromide, Sigma). Following a 30 min incubation at 37° C. to absorb the virus, 4 × 10^5 of virus treated cells in 1 mL of fresh medium (plus 10% fetal calf serum, pencillin and streptomycin) were added to each well of a 24 well tissue culture plate (Falcon), and mixed with an equal volume of serum-free RPMI-1640 medium containing analog. Medium containing 5% serum, antibiotics ± analog was replaced every other day. Each of the heteroatom substituted analogs was prepared as a 100 mM stock solution in 100% ethanol and stored at -90° C. prior to dilution in the serum-free RPMI-1640 medium. The maximum final ethanol concentration reached after dilution of the different analogs in media was 0.1%. Therefore, uninfected and infected H9 cells, treated with or without 0.1% ethanol, were used as controls for each test. Ethanol alone had no demonstrable effects.
Except for the preliminary screening of the various (coded) analogs which was done twice, all other assays were performed at least three times. Samples were tested in duplicate each time the assay was repeated.
Virus Assays. Virus was quantitated using supernatant solutions of cells harvested on day 8 (m.o.i.=0.01) or day 10 (m.o.i.=0.001) of treatment. Virions were concentrated 10 fold by precipitation of culture supernatants with a solution of polyethylene glycol (30% in 150 mM NaCl, 0.1 mM phenylmethylsulfonylfluoride). The precipitates were solubilized and virus-associated reverse transcriptase (RT) activity measured by [^32 P]TTP incorporation using a poly(rA)-oligo(dT) template [Poiesz et al., Proc. Natl. Acad. Sci. USA 77, 7415-7419 (1980)]. Cell supernatants were also tested for virus-specific antigen using a p24 ELISA from Dupont (Wilmington, DE). This assay can detect as little as 0.03 ng of antigen/mL (antigen=p24, the major structural nucleocapsid protein of HIV-1, as well as its precursor, Pr55^gag).
HIV-1 Replication in H9 Cells is Inhibited by Treatment with Heteroatom-Containing Analogs of Myristate. […]

AIDS virus (HIV) = settings: cited from earlier work
MoMLV = MoMLV replication: LZ1 virus titer by histochemical staining of NIH 3T3 cells for β-galactosidase; type: cell-based, Maloney murine leukemia virus
Excerpt: Panel A -Schematic representation of the MoMLV assay system. […] This cell produces infectious, replication defective virus (designated (LZ1) which carries the LacZ gene. When NIH3T3 cells are exposed to supernatant taken from the LZ1 virus producing cells, they are initially infected and their progeny are detectable by histochemical staining for β-galactosidase. Thus, the titer of the virus produced by the LZ1 cells after treatment with the various agents, can be readily determined by counting the number of blue NIH3T3 cells. Replication competent MoMLV is not detected using this assay system since the lacZ gene product is not present. Panel B - The effect of 6-oxamyristic acid and 13-oxamyristic acid on LZ1 virus production. The results represent the mean (+1 standard deviation) of three independent tests each done in duplicate. Panel C - Number of viable LZ1 producing cells at the end of a 2 day treatment with analog as measured by trypan blue exclusion. The results of duplicate assays were averaged. Panel D - The effects of analog treatment on incorporation of [^3 H]leucine. Cells in duplicate wells were pulse labeled for 4 h following three days of incubation with analog or ethanol (0.1%). Duplicate assays were performed. The results were averaged and expressed as a percentage of the results obtained from untreated cells.
Assay of the Effects of Analogs on the Replication of Maloney Murine Leukemia Virus. The LZ1 titer assay was developed for rapid histochemical quantitation of infectious virus production. In brief, the LZ1 virus-producing cell line was derived by Sanes et al., EMBO J. 5, 3133-3142 (1986), from the .PSI.-2 cell line. .PSI.-2-cells are NIH 3T3 cells that contain a stably integrated packaging mutant (pMOV-.PSI.-) of MoMLV. This mutant has a deletion of 350 nucleotides between the 5' donor splice site for env and the initiator methionine codon for Pr65^gag [Mann et al., Cell 33, 153-159 (1983)]. The LZ1 cell line is a subclone of .PSI.-2 cells that were co-transfectd with pM-MuLV-SV-LacZ [Sanes et al., supra.]and pSVTK neoB and then selected for G418 (Geneticin®) antibiotic resistance and production of defective MoMLV containing the E. coli β-galactosidase gene [Sanes et al., supra.]. The recombinant virus produced by LZ1 cells is capable of primary infection of NIH 3T3 cells but is replication defective [Sanes et al., surpa.]. Infected NIH 3T3 containing the lac-Z gene can be identified by histochemical staining for β-galactosidase activity.
To assess the effects of analog treatment on MoMLV replication, 1 × 10^5 LZ1 producing cells were added to each well of a 24-well tissue culture plate in 1 mL of Dulbecco's Modified Eagle's medium (DME) containing calf serum (final concentration =10%), penicillin (100 IU/mL), streptomycin (100 μg/mL) with or without analog (10-100 μM). After 24 h, the media was removed and fresh serum-containing media ±analog was added. The next day (48 hours after plating), the virus containing supernatant was removed and passed through a 0.2 μm filter. Various size aliquots (25-100 μL of the 1 mL filtrate) were added to 1 × 10^4 NIH 3T3 cells contained in 1 mL of DME/10% calf serum/penicillin/streptomycin. These indicator cells had been plated 24 h earlier in 24 well tissue culture plates. Polybrene (Sigma) was added at the same time as the filtrate so that its final concentration was 10 μg/mL. […]

HIV-1 [2] = assay: Syncytia assay in HIV-1 infected H9 cells; type: cell-based, HIV-1 strain HXB2gptX (in human H9 cells); settings: compared to infected, untreated H9 controls
Procedure: as §1
Assay for HIV-1 Replication. The human T-lymphoid cell line, H9, was provided by R. D. Gallo (NIH) and maintained in RPMI-1640 medium supplemented with 10% fetal bovine serum, 100 IU/mL penicillin, 100 μg/mL streptomycin an 2 mM L-glutamine. […] The titer of the virus stock was determined by serial dilution using syncytia formation and reverse transcriptase activity (see below) as a measure of infectivity in H9 cells. […]
Syncytia Assay. The number of syncytia in each well was determined by microscopic examination on days 4-6 (infected, untreated control cultures), 8 and 10 (analog or decanoate treated cultures). The average number of multi-nucleated giant cells counted per 10 low-power fields (LPF =40 times magnification) was assigned to an arbitrary syncytia scale: 0=<1/LPF, 1+=1-4/LPF, 2+=5-7/LPF, 3+= 8-10/LPF, 4+=>10/LPF. By this criteria uninfected, control cells had zero synctia, and infected, untreated H9 cells were consistently scored as 4+.

Hydrophobicity = type: physicochemical; settings: thioether moiety introduced into the fatty acid chain
[3] = system: myristoyl CoA: protein N-myristoyl transferase (NMT); assay: Ability to act as substrate for NMT; type: biochemical
Excerpt: Purification and use of this enzyme are described, for example, by Towler et al., Proc. Natl. Acad. Sci. USA 84, 2708-2712 (1987); J. Biol. Chem. 262, 1030-1036 (1987).

virus = assay: Antiviral effectiveness compared with C13-C14 analogs; settings: C16 saturated fatty acid analog

## Cc1cn([C@H]2C[C@H](N=[N+]=[N-])[C@@H](CO)O2)c(=O)[nH]c1=O [AZT, 3'-azido-3'-deoxythymidine, reference compound]
HIV-1 [1]; Human immunodeficiency virus 1, H9, read-out: inhibition of viral replication in the H9 acute assay
  inhibition at 5 µM: > 90%
AIDS virus (HIV)
  inhibition of replication of the virus in vitro: shown to inhibit replicaton of the virus in vitro

## CCCCCCCCOCCCCC(=O)O [6-oxamyristate, 5-(octyloxy)pentanoic acid]
HIV-1 [1]
  effect on reverse transcriptase activity: No reduction in reverse transcriptase activity
  activity at 100 µM: 20%
HIV-1 [1]; 1-100 μM, H9 cells, ranking among the four analogs
  relative efficacy on HIV-1 production: least effective
HIV-1 [1]; H9 cells
  effect on HIV-1 production / replication: no effect on HIV-1 replication
MoMLV; Murine leukemia virus, NIH3T3, 48 h, read-out: average reduction in virus titers (MoMLV)
  inhibition at 100 µM: > 60%
MoMLV; Murine leukemia virus, NIH3T3, 48 h, read-out: reduction in MoMLV replication (virus titer)
  inhibition at 10 µM: 40%
MoMLV; up to 100 μM, 2 day treatment of LZ1 cells
  effect on MoMLV replication: inhibits MoMLV replication in a concentration dependent fashion

## CCCCCCCCCC(=O)O [decanoic acid, reference compound]
HIV-1 [1]
  activity at 100 µM: 80%
MoMLV; 10-100 μM, 2 day treatment of LZ1 cells
  reduction of MoMLV titers compared to untreated controls: no significant reductions
HIV-1 [2]
  effect on number of syncytia: no effect on the number of synctia

## CCCOCCCCCCCCCC(=O)O [11oxamyristate, 10-(Propoxy)decanoic acid]
HIV-1 [1]
  effect on reverse transcriptase activity: More pronounced effects

## CCSCCCCCCCCCCC(=O)O [12thiamyristate, 11-(Ethylthio)undecanoic acid]
HIV-1 [1]
  effect on reverse transcriptase activity: More pronounced effects
Hydrophobicity
  hydrophobicity: decreases its hydrophobicity
[3]
  ability to act as a substrate for NMT: leaves intact its ability to act as a substrate

## CCCCOCCCCCCCCCCC(=O)O [Compound I, 11-(1-butoxy)undecanoic acid]
virus
  effectiveness versus analogs based on C13-C14 fatty acids: less effective than the analogs based on C13 -C14 fatty acids
